Measurements reported in ChEMBL document CHEMBL1143305, “SAR and biological evaluation of analogues of a small molecule histone deacetylase inhibitor N-(2-aminophenyl)-4-((4-(pyridin-3-yl)pyrimidin-2-ylamino)methyl)benzamide (MGCD0103)” (Bioorg Med Chem Lett, 2009).
The source made the active and inactive calls. No cut-off for these calls is given here.

How the values were obtained:
HCT-116 [1] = test: Induction of p21WAF1/CIP1 expression in human HCT116 cells assessed as […] after 16 hrs by luciferase assay; type: functional, cell-based; conditions: for EC50: HCT-116, 16 h
T-24 = test: Induction of histone H4 hyperacetylation in human T24 cells after 16 hrs by immunoblotting; type: functional, cell-based; conditions: for EC50: T-24, 16 h
HMEC [2] = test: Antiproliferative activity against HMEC by MTT assay; type: cell-based; conditions: Homo sapiens
Histone deacetylase 1 = Histone deacetylase 1 (Homo sapiens, UniProt Q13547); test: Inhibition of human recombinant HDAC1
Sequence of Histone deacetylase 1 (Q13547 whole entry): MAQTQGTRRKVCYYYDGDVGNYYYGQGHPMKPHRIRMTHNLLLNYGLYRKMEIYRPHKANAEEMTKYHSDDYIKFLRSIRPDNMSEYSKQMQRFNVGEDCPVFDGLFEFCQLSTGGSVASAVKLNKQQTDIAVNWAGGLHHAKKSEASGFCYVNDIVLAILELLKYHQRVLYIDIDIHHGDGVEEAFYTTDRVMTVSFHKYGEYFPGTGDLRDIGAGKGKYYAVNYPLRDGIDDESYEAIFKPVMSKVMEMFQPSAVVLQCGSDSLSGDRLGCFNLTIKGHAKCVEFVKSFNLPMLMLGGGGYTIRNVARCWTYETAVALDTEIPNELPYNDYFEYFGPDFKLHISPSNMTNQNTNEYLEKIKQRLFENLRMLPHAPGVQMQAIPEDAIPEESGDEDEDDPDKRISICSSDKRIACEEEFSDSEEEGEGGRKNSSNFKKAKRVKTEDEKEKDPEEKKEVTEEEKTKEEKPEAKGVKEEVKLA

HMEC [3] = test: Selectivity ratio of IC50 for HMEC to IC50 for human HCT116 cells
HCT-116 [4] = test: cells; conditions: Homo sapiens
Description: (§1) Antiproliferative activity against human HCT116 cells by MTT assay

HCT-116 [5] = test: Induction of apoptosis in human HCT116 cells; type: functional, cell-based
HCT-116 [6] = conditions: Homo sapiens
Description: as §1

Nc1ccccc1NC(=O)c1ccc(CNc2nccc(-c3cccc(OCCN4CCOCC4)c3)n2)cc1
EC50 (HCT-116 [1]): 0.4 µM | EC50 (T-24): 1 µM | IC50 (HMEC [2]): 41 µM | IC50 (Histone deacetylase 1): 0.14 µM | Ratio IC50 (HMEC [3]): >30 | IC50 (HCT-116 [4]): 0.3 µM

Nc1ccccc1NC(=O)c1ccc(CNc2nccc(-c3ccc(C(=O)N4CCOCC4)nc3)n2)cc1
EC50 (HCT-116 [1]): 2 µM | Activity (T-24): inactive | IC50 (HMEC [2]): 37 µM | IC50 (Histone deacetylase 1): 0.25 µM | Ratio IC50 (HMEC [3]): >20 | Activity (HCT-116 [5]): Active | IC50 (HCT-116 [4]): 1 µM

Nc1ccccc1NC(=O)c1ccc(Nc2nccc(-c3cccnc3)n2)cc1
IC50 (Histone deacetylase 1): 2 µM | IC50 (HCT-116 [4]): 2 µM

Nc1ccccc1NC(=O)c1ccc(CNc2nccc(-c3cccnc3)n2)cc1 [MOCETINOSTAT]
EC50 (HCT-116 [1]): 0.6 µM | EC50 (T-24): < 1 µM | IC50 (HMEC [2]): 21 µM | IC50 (HCT-116 [4]): 0.3 µM

CC(C)(O)c1ccc(-c2ccnc(NCc3ccc(C(=O)Nc4ccccc4N)cc3)n2)cn1
EC50 (HCT-116 [1]): 0.6 µM | EC50 (T-24): 2 µM | IC50 (HMEC [2]): 38 µM | IC50 (Histone deacetylase 1): 0.23 µM | Ratio IC50 (HMEC [3]): >20 | Activity (HCT-116 [5]): Active | IC50 (HCT-116 [4]): 0.1 µM

N#Cc1ccc(-c2ccnc(NCc3ccc(C(=O)Nc4ccccc4N)cc3)n2)cn1
EC50 (HCT-116 [1]): 0.7 µM | EC50 (T-24): 1 µM | IC50 (HMEC [2]): > 50 µM | IC50 (Histone deacetylase 1): 0.16 µM | Ratio IC50 (HMEC [3]): >20 | Activity (HCT-116 [5]): Active | IC50 (HCT-116 [4]): 0.4 µM

Nc1ccccc1NC(=O)c1ccc(CNc2cc(-c3cccnc3)ncn2)cc1
EC50 (HCT-116 [1]): 0.5 µM | EC50 (T-24): < 1 µM | IC50 (HMEC [2]): 42 µM | IC50 (Histone deacetylase 1): 0.07 µM | Ratio IC50 (HMEC [3]): >15 | Activity (HCT-116 [5]): Active | IC50 (HCT-116 [4]): < 0.05 µM

CN(C)CCOc1cccc(-c2ccnc(NCc3ccc(C(=O)Nc4ccccc4N)cc3)n2)c1
Activity (HCT-116 [1]): inactive | EC50 (T-24): < 1 µM | IC50 (HMEC [2]): 11 µM | IC50 (Histone deacetylase 1): 0.13 µM | Ratio IC50 (HMEC [3]): >30 | IC50 (HCT-116 [4]): 0.3 µM

O=C(Nc1ccccc1)c1ccc(CNc2nccc(-c3cccnc3)n2)cc1
IC50 (Histone deacetylase 1): > 25 µM | IC50 (HCT-116 [4]): > 50 µM

COCOC(C)(C)c1ccc(-c2ccnc(NCc3ccc(C(=O)Nc4ccccc4N)cc3)n2)cn1
EC50 (HCT-116 [1]): 1 µM | EC50 (T-24): 1 µM | IC50 (HMEC [2]): 49 µM | IC50 (Histone deacetylase 1): 0.25 µM | Ratio IC50 (HMEC [3]): >20 | Activity (HCT-116 [5]): Active | IC50 (HCT-116 [4]): 0.1 µM

CN1CCN(c2ccc(-c3ccnc(NCc4ccc(C(=O)Nc5ccccc5N)cc4)n3)cn2)CC1
EC50 (HCT-116 [1]): 0.2 µM | Activity (T-24): inactive | IC50 (HMEC [2]): 5 µM | IC50 (Histone deacetylase 1): 0.08 µM | Ratio IC50 (HMEC [3]): >20 | Activity (HCT-116 [5]): Active | IC50 (HCT-116 [4]): 0.2 µM

Nc1ccccc1NC(=O)c1ccc(CNc2nccc(-c3ccsc3)n2)cc1
EC50 (HCT-116 [1]): 0.3 µM | EC50 (T-24): 3 µM | IC50 (HMEC [2]): 7 µM | IC50 (Histone deacetylase 1): 0.07 µM | Ratio IC50 (HMEC [3]): >30 | IC50 (HCT-116 [4]): 0.07 µM

Nc1cc(-c2cccnc2)nc(NCc2ccc(C(=O)Nc3ccccc3N)cc2)n1
EC50 (HCT-116 [1]): 0.2 µM | EC50 (T-24): 1 µM | IC50 (HMEC [2]): 14 µM | IC50 (Histone deacetylase 1): 0.17 µM | IC50 (HCT-116 [4]): 0.2 µM

CSc1ccc(-c2ccnc(NCc3ccc(C(=O)Nc4ccccc4N)cc3)n2)cn1
EC50 (HCT-116 [1]): 0.3 µM | EC50 (T-24): 1 µM | IC50 (HMEC [2]): 6 µM | IC50 (Histone deacetylase 1): 0.09 µM | Ratio IC50 (HMEC [3]): >20 | Activity (HCT-116 [5]): Active | IC50 (HCT-116 [4]): 0.3 µM

Nc1ccccc1NC(=O)c1ccc(CNc2nccc(-c3cnccn3)n2)cc1
EC50 (HCT-116 [1]): 0.6 µM | EC50 (T-24): 1 µM | IC50 (HMEC [2]): 23 µM | IC50 (Histone deacetylase 1): 0.19 µM | Ratio IC50 (HMEC [3]): >30 | IC50 (HCT-116 [4]): 0.3 µM

CN(C)CCOc1ccc(-c2ccnc(NCc3ccc(C(=O)Nc4ccccc4N)cc3)n2)cc1
EC50 (HCT-116 [1]): 0.1 µM | EC50 (T-24): < 1 µM | IC50 (HMEC [2]): 10 µM | IC50 (Histone deacetylase 1): 0.12 µM | Ratio IC50 (HMEC [3]): >30 | IC50 (HCT-116 [4]): 0.09 µM

Nc1ccccc1NC(=O)c1ccc(CNc2cccc(-c3cccnc3)c2)cc1
EC50 (HCT-116 [1]): 0.6 µM | EC50 (T-24): < 1 µM | IC50 (HMEC [2]): 5 µM | IC50 (Histone deacetylase 1): 0.09 µM | Ratio IC50 (HMEC [3]): >15 | Activity (HCT-116 [5]): Active | IC50 (HCT-116 [4]): 0.3 µM

CSc1nc(NCc2ccc(C(=O)Nc3ccccc3N)cc2)cc(-c2cccnc2)n1
EC50 (HCT-116 [1]): 0.6 µM | EC50 (T-24): 1 µM | IC50 (HMEC [2]): 13 µM | IC50 (Histone deacetylase 1): 0.25 µM | IC50 (HCT-116 [4]): 0.1 µM

Nc1ccccc1NC(=O)c1ccc(/C=C/CNc2nccc(-c3cccnc3)n2)cc1
IC50 (Histone deacetylase 1): 0.13 µM

Nc1ccccc1NC(=O)c1ccc(CNc2nccc(-c3ccc(CN4CCOCC4)cc3)n2)cc1
EC50 (HCT-116 [1]): 0.5 µM | EC50 (T-24): 1 µM | IC50 (HMEC [2]): 27 µM | IC50 (Histone deacetylase 1): 0.09 µM | Ratio IC50 (HMEC [3]): >30 | IC50 (HCT-116 [4]): 0.1 µM

Nc1ccccc1NC(=O)c1ccc(CNc2cccc(-c3cccnc3)n2)cc1
EC50 (HCT-116 [1]): 0.6 µM | EC50 (T-24): 1 µM | IC50 (HMEC [2]): > 50 µM | IC50 (Histone deacetylase 1): 0.18 µM | Activity (HCT-116 [5]): Active | IC50 (HCT-116 [4]): 0.6 µM

Nc1ccccc1NC(=O)c1ccc(CNc2ccnc(-c3cccnc3)n2)cc1
EC50 (HCT-116 [1]): 0.6 µM | EC50 (T-24): < 1 µM | IC50 (HMEC [2]): 11 µM | IC50 (Histone deacetylase 1): 0.2 µM | Activity (HCT-116 [5]): Active | IC50 (HCT-116 [4]): 0.4 µM

Nc1ccccc1NC(=O)c1ccc(CNc2nccc(-c3cc(CO)no3)n2)cc1
Activity (HCT-116 [1]): inactive | EC50 (T-24): 1 µM | IC50 (HMEC [2]): > 50 µM | IC50 (Histone deacetylase 1): 0.21 µM | Ratio IC50 (HMEC [3]): >30 | IC50 (HCT-116 [4]): 0.8 µM

CN(C)C(=O)c1ccc(-c2ccnc(NCc3ccc(C(=O)Nc4ccccc4N)cc3)n2)cn1
EC50 (HCT-116 [1]): 0.9 µM | EC50 (T-24): 2 µM | IC50 (HMEC [2]): > 50 µM | IC50 (Histone deacetylase 1): 0.42 µM | Ratio IC50 (HMEC [3]): >20 | Activity (HCT-116 [5]): Active | IC50 (HCT-116 [4]): 0.3 µM

Nc1ccccc1NC(=O)c1ccc(CNc2nccc(-c3ccc(OCCN4CCOCC4)cc3)n2)cc1
EC50 (HCT-116 [1]): 0.1 µM | EC50 (T-24): < 1 µM | IC50 (HMEC [2]): 8 µM | IC50 (Histone deacetylase 1): 0.08 µM | Ratio IC50 (HMEC [3]): >30 | IC50 (HCT-116 [4]): 0.1 µM

Nc1ccccc1NC(=O)c1ccc(CNc2nccc(-c3nccs3)n2)cc1
Activity (HCT-116 [6]): inactive | EC50 (HCT-116 [1]): 0.5 µM | EC50 (T-24): < 1 µM | IC50 (HMEC [2]): 14 µM | IC50 (Histone deacetylase 1): 0.14 µM | Ratio IC50 (HMEC [3]): >30

Nc1ccccc1NC(=O)c1cccc(CNc2nccc(-c3cccnc3)n2)c1
IC50 (Histone deacetylase 1): > 20 µM | IC50 (HCT-116 [4]): 43 µM

Nc1ccccc1NC(=O)/C=C/c1ccc(CNc2nccc(-c3cccnc3)n2)cc1
IC50 (Histone deacetylase 1): 1.2 µM | IC50 (HCT-116 [4]): 2 µM

Nc1ccccc1NC(=O)c1ccc(CNc2nccc(-c3ccc(N4CCOCC4)nc3)n2)cc1
EC50 (HCT-116 [1]): 0.4 µM | EC50 (T-24): < 1 µM | IC50 (HMEC [2]): 5 µM | IC50 (Histone deacetylase 1): 0.05 µM | Ratio IC50 (HMEC [3]): >20 | Activity (HCT-116 [5]): Active | IC50 (HCT-116 [4]): < 0.05 µM

Nc1ccccc1C(=O)Nc1ccc(CNc2nccc(-c3cccnc3)n2)cc1
IC50 (Histone deacetylase 1): > 20 µM | IC50 (HCT-116 [4]): 25 µM

Nc1ccccc1NC(=O)c1ccc(CNc2cncc(-c3cccnc3)n2)cc1
EC50 (HCT-116 [1]): 0.4 µM | EC50 (T-24): 1 µM | IC50 (HMEC [2]): 16 µM | IC50 (Histone deacetylase 1): 0.11 µM | Ratio IC50 (HMEC [3]): >15 | Activity (HCT-116 [5]): Active | IC50 (HCT-116 [4]): 0.3 µM
